Experimental findings from ChEMBL document CHEMBL1158645, “Antitumor agents 37. The isolation and structural elucidation of isohelenol, a new antileukemic sesquiterpene lactone, and isohelenalin from Helenium microcephalum” (1979) are described below.

By T/C is commonly meant the result in the treated group divided by that in the control group, in per cent.

The test concerns P388. Description: In vivo antitumor activity against mouse P388 lymphocytic leukemia at 12.5 mg/kg. The class given is functional.

In the case of `C[C@@H]1C[C@H]2OC(=O)C(CO)=C2[C@H](O)[C@]2(C)C(=O)C=C[C@@H]12` [ISOHELENOL], the T/C turned out to be 133%.
